Data: ChEMBL document CHEMBL1201862, “PubChem BioAssay data set” (2004)
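The compound was tested at five concentrations on cells cultured in 96-well plates, with a 48-hour exposure period. At the GI50, growth is halved.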 Activity calls are given as the source filed them. Rule as the data show it: active = GI50 up to about 1.1 µM and inactive = higher.

Legend:
Assay in all cases: growth of human tumour cells (NCI), 48 h
NCI-H23 = tested on: NCI-H23
SK-OV-3 = tested on: SK-OV-3
SK-MEL-2 = tested on: SK-MEL-2
OVCAR-5 = tested on: OVCAR-5
CCRF-CEM = tested on: CCRF-CEM
K562 = tested on: K562
SF-268 = tested on: SF-268
SF-539 = tested on: SF-539
HCT-15 = tested on: HCT-15
SK-MEL-28 = tested on: SK-MEL-28
SW-620 = tested on: SW-620
CAKI-1 = tested on: CAKI-1
HT-29 = tested on: HT-29
HL-60 = tested on: HL-60
HCT-116 = tested on: HCT-116
UACC-257 = tested on: UACC-257
LOX IMVI = tested on: LOX IMVI
BT-549 = tested on: BT-549
MDA-MB-435 = tested on: MDA-MB-435
T47D = tested on: T47D

O=C(CC1=Nc2nnc(-c3nnc4n3C(=O)C(CC(=O)C3CC3)=N4)n2C1=O)C1CC1
GI50 (NCI-H23): > 100 µM (inactive) | GI50 (SK-OV-3): > 100 µM (inactive) | GI50 (SK-MEL-2): > 100 µM (inactive) | GI50 (OVCAR-5): > 100 µM (inactive) | GI50 (CCRF-CEM): > 100 µM (inactive) | GI50 (K562): > 100 µM (inactive) | GI50 (SF-268): > 100 µM (inactive) | GI50 (SF-539): > 100 µM (inactive) | GI50 (HCT-15): > 100 µM | GI50 (SK-MEL-28): > 100 µM (inactive) | GI50 (SW-620): > 100 µM (inactive) | GI50 (CAKI-1): > 100 µM (inactive) | GI50 (HT-29): > 100 µM (inactive) | GI50 (HL-60): > 100 µM (inactive) | GI50 (HCT-116): > 100 µM (inactive) | GI50 (UACC-257): > 100 µM (inactive) | GI50 (LOX IMVI): > 100 µM (inactive)

CC(C)Cc1ccc(C(C)/C=C2\CCC(CN(C)C)C2=O)cc1 (stereo not given)
GI50 (NCI-H23): 12.6 µM (inactive) | GI50 (SK-OV-3): 19.5 µM (inactive) | GI50 (SK-MEL-2): 14.4 µM (inactive) | GI50 (OVCAR-5): 23 µM (inactive) | GI50 (CCRF-CEM): 3.92 µM (inactive) | GI50 (K562): 2.86 µM (inactive) | GI50 (SF-268): 11.6 µM (inactive) | GI50 (SF-539): 16.5 µM (inactive) | GI50 (HCT-15): 9.18 µM | GI50 (SK-MEL-28): 15.8 µM (inactive) | GI50 (BT-549): 17.1 µM (inactive) | GI50 (SW-620): 6.82 µM (inactive) | GI50 (CAKI-1): 17.5 µM (inactive) | GI50 (HT-29): 13.8 µM (inactive) | GI50 (MDA-MB-435): 7.16 µM (inactive) | GI50 (HL-60): 5.61 µM (inactive) | GI50 (HCT-116): 7.05 µM (inactive) | GI50 (UACC-257): 14.8 µM (inactive) | GI50 (LOX IMVI): 6.97 µM (inactive)

CC(=O)OCC(=O)[C@@]1(O)CC[C@H]2[C@@H]3C[C@H](C)C4=CC(=O)C=C[C@]4(C)[C@@]3(F)[C@@H](O)C[C@@]21C
GI50 (NCI-H23): > 100 µM (inactive) | GI50 (SK-OV-3): 0.0131 µM (active) | GI50 (SK-MEL-2): > 100 µM (inactive) | GI50 (OVCAR-5): 12.9 µM (inactive) | GI50 (CCRF-CEM): 5.33 µM (inactive) | GI50 (K562): > 100 µM (inactive) | GI50 (SF-268): > 100 µM (inactive) | GI50 (SF-539): > 100 µM (inactive) | GI50 (HCT-15): > 100 µM | GI50 (SK-MEL-28): > 100 µM (inactive) | GI50 (SW-620): > 100 µM (inactive) | GI50 (CAKI-1): > 100 µM (inactive) | GI50 (HT-29): > 100 µM (inactive) | GI50 (HL-60): > 100 µM (inactive) | GI50 (HCT-116): > 100 µM (inactive) | GI50 (UACC-257): > 100 µM (inactive) | GI50 (LOX IMVI): > 100 µM (inactive)

CCOC(=O)C(=O)C=P(c1ccccc1)(c1ccccc1)c1ccccc1
GI50 (NCI-H23): > 100 µM (inactive) | GI50 (SK-OV-3): > 100 µM (inactive) | GI50 (SK-MEL-2): > 100 µM (inactive) | GI50 (OVCAR-5): > 100 µM (inactive) | GI50 (CCRF-CEM): > 100 µM (inactive) | GI50 (K562): > 100 µM (inactive) | GI50 (SF-268): > 100 µM (inactive) | GI50 (SF-539): > 100 µM (inactive) | GI50 (HCT-15): > 100 µM | GI50 (SK-MEL-28): > 100 µM (inactive) | GI50 (SW-620): > 100 µM (inactive) | GI50 (CAKI-1): > 100 µM (inactive) | GI50 (HT-29): > 100 µM (inactive) | GI50 (HL-60): > 100 µM (inactive) | GI50 (HCT-116): > 100 µM (inactive) | GI50 (UACC-257): > 100 µM (inactive) | GI50 (LOX IMVI): > 100 µM (inactive)

C=C1[C@@H](OC(C)=O)[C@H]2[C@@H](OC(C)=O)[C@@](C)(OC(C)=O)C[C@]2(OC(C)=O)C(=O)[C@@H](C)/C=C/C(C)(C)C(=O)C[C@H]1OC(C)=O
GI50 (NCI-H23): > 100 µM (inactive) | GI50 (SK-OV-3): > 100 µM (inactive) | GI50 (SK-MEL-2): > 100 µM (inactive) | GI50 (OVCAR-5): > 100 µM (inactive) | GI50 (T47D): > 100 µM (inactive) | GI50 (CCRF-CEM): 60.3 µM (inactive) | GI50 (K562): > 100 µM (inactive) | GI50 (SF-539): > 100 µM (inactive) | GI50 (HCT-15): > 100 µM | GI50 (SK-MEL-28): > 100 µM (inactive) | GI50 (CAKI-1): > 100 µM (inactive) | GI50 (HT-29): 36.6 µM (inactive) | GI50 (MDA-MB-435): > 100 µM (inactive) | GI50 (HCT-116): > 100 µM (inactive) | GI50 (UACC-257): > 100 µM (inactive) | GI50 (LOX IMVI): > 100 µM (inactive)

CCOc1ccc(-c2oc(/C=N/NS(=O)(=O)c3ccc(C)cc3)c([N+](=O)[O-])c2-c2ccc(OCC)cc2)cc1
GI50 (NCI-H23): 13.5 µM (inactive) | GI50 (SK-OV-3): 15.4 µM (inactive) | GI50 (SK-MEL-2): 19.9 µM (inactive) | GI50 (OVCAR-5): 11.5 µM (inactive) | GI50 (CCRF-CEM): 2.54 µM (inactive) | GI50 (K562): 3.79 µM (inactive) | GI50 (SF-268): 17.9 µM (inactive) | GI50 (SF-539): 16.1 µM (inactive) | GI50 (HCT-15): 5.65 µM | GI50 (SK-MEL-28): 12.4 µM (inactive) | GI50 (SW-620): 2.61 µM (inactive) | GI50 (CAKI-1): 10.3 µM (inactive) | GI50 (HT-29): 5.19 µM (inactive) | GI50 (HL-60): 4.03 µM (inactive) | GI50 (HCT-116): 2.03 µM (inactive) | GI50 (UACC-257): 16 µM (inactive) | GI50 (LOX IMVI): 3.46 µM (inactive)

O=[N+]([O-])c1cccc2c(/N=N/c3ccc4ccccc4c3O)c(O)cc(S(=O)(=O)O)c12
GI50 (NCI-H23): 33.3 µM (inactive) | GI50 (SK-OV-3): 76.2 µM (inactive) | GI50 (SK-MEL-2): 22.6 µM (inactive) | GI50 (OVCAR-5): 34.8 µM (inactive) | GI50 (CCRF-CEM): 3.05 µM (inactive) | GI50 (K562): > 100 µM (inactive) | GI50 (SF-268): 23.6 µM (inactive) | GI50 (HCT-15): 14.1 µM | GI50 (SK-MEL-28): 44.3 µM (inactive) | GI50 (BT-549): 74.6 µM (inactive) | GI50 (SW-620): 31.6 µM (inactive) | GI50 (CAKI-1): 2 µM (inactive) | GI50 (HT-29): 34.1 µM (inactive) | GI50 (MDA-MB-435): 23.8 µM (inactive) | GI50 (HL-60): 4.21 µM (inactive) | GI50 (HCT-116): 31 µM (inactive) | GI50 (UACC-257): 31.8 µM (inactive) | GI50 (LOX IMVI): 6.18 µM (inactive)

Cc1ccc([N+](=O)[O-])c2c(NCCC[N+](C)(C)[O-])ccnc12
GI50 (NCI-H23): 33.4 µM (inactive) | GI50 (SK-OV-3): 52 µM (inactive) | GI50 (SK-MEL-2): 52.6 µM (inactive) | GI50 (OVCAR-5): 28.2 µM (inactive) | GI50 (T47D): 35.1 µM (inactive) | GI50 (CCRF-CEM): 44.6 µM (inactive) | GI50 (K562): 27.5 µM (inactive) | GI50 (SF-268): > 100 µM (inactive) | GI50 (SF-539): > 100 µM (inactive) | GI50 (HCT-15): > 10 µM | GI50 (SK-MEL-28): > 100 µM (inactive) | GI50 (SW-620): 34.1 µM (inactive) | GI50 (CAKI-1): 53.6 µM (inactive) | GI50 (HT-29): 34.8 µM (inactive) | GI50 (MDA-MB-435): > 100 µM (inactive) | GI50 (HL-60): 31.3 µM (inactive) | GI50 (HCT-116): 38.9 µM (inactive) | GI50 (UACC-257): 29.4 µM (inactive) | GI50 (LOX IMVI): 49.5 µM (inactive)
